Measurements taken from PMC2747021, “Synergistic Antibacterial and Anti-Inflammatory Activity of Temporin A and Modified Temporin B In Vivo” (PLoS ONE, 2009).
No end group written: not given here.

What was measured:
[1] = tested on: Salmonella enterica serovar Paratyphi; experiment: Antibacterial activity, MIC100 broth dilution; format: cell-based; settings: single peptide; MIC100, MH broth, about 10^6 CFU/ml, 37°C 20 h, absorbance 600 nm, triplicate
[2] = tested on: Staphilococcus.aureus A170; settings: single peptide; MIC100, MH broth, about 10^6 CFU/ml, 37°C 20 h, absorbance 600 nm, triplicate
[3] = tested on: Staphilococcus .aureus A172; settings: 20 h
[4] = tested on: Staphilococcus aureus 007; settings: 20 h
Listeria monocytogenes = settings: 20 h
Escherichian coli = settings: 20 h

Substance KKYLLPIVGNLLKSLL-NH2 [TB-YK] has an MIC [1] of 20 µg/mL, an MIC [2] of 20 µg/mL and an MIC [3] of 25 µg/mL. The MIC [4] was 10 µg/mL, the MIC (Listeria monocytogenes) was 10 µg/mL and the MIC (Escherichian coli) was 20 µg/mL.
